Values quoted from earlier work, collected in patent US20220401579A1, “INCLUSION COMPLEXES OF PHARMACEUTICALS AND CYCLIC OLIGOMERS” (DISPERSOL TECHNOLOGIES, LLC, priority 2019, published 2022).
Where two headings read alike, the source gives them in different places. Values belong to the compound of their own block, whether it stands above or below them.

Assays:
[1] = for solubility in water / aqueous media (descriptive): water or aqueous media
[2] = granulate released in the proximal small intestine

water solubility ([1]; water): > 600 mg/mL
SMILES: CC(O)COC[C@H]1O[C@@H]2O[C@H]3[C@H](O)[C@@H](O)[C@@H](O[C@H]4[C@H](O)[C@@H](O)[C@@H](O[C@H]5[C@H](O)[C@@H](O)[C@@H](O[C@H]6[C@H](O)[C@@H](O)[C@@H](O[C@H]7[C@H](O)[C@@H](O)[C@@H](O[C@H]8[C@H](O)[C@@H](O)[C@@H](O[C@H]1[C@H](O)[C@H]2O)O[C@@H]8COCC(C)O)O[C@@H]7COCC(C)O)O[C@@H]6COCC(C)O)O[C@@H]5COCC(C)O)O[C@@H]4COCC(C)O)O[C@@H]3COCC(C)O (stereo partly drawn) [HPBCD, hydroxy propyl β cyclodextrin]

solubility in alcohols (descriptive) ([1]; alcohols): very slightly soluble
solubility in dichloromethane (descriptive) ([1]; dichloromethane): freely soluble
log (n-octanol/water) partition coefficient ([1]; pH 8.1): 5.66
solubility in water / aqueous media (descriptive) [1]: insoluble
SMILES: CCC(C)n1ncn(-c2ccc(N3CCN(c4ccc(OCC5COC(Cn6cncn6)(c6ccc(Cl)cc6Cl)O5)cc4)CC3)cc2)c1=O (stereo not shown) [Itraconazole, 2-butan-2-yl-4-[4-[4-[4-[[2-(2,4-dichlorophenyl)-2-(1,2,4-triazol-1-ylmethyl)-1,3-dioxolan-4-yl]methoxy]phenyl]-1-piperazinyl]phenyl]-1,2,4-triazol-3-one]

intrinsic pH of saturated solution in water ([1]; saturated solution in water): 5.7
concentration of a saturated solution in water ([1]; water): 2800 µg/mL
solubility in water / aqueous media (descriptive) [1]: soluble
SMILES: COC(=O)c1ccc2c(c1)NC(=O)/C2=C(\Nc1ccc(N(C)C(=O)CN2CCN(C)CC2)cc1)c1ccccc1 [Nintedanib esylate, 1H-Indole-6-carboxylic acid, 2,3 dihydro-3-[[[4-[methyl[(4-methyl-1-piperazinyl)acetyl]amino]phenyl]amino]phenylmethylene]-2-oxo-,methyl ester, (3Z)-, ethanesulfonate (1:1)]

median Tmax (fasted): 2.00 h
median Tmax (fed): 3.98 h
increase in exposure after food intake compared to fasted conditions (fed versus fasted): approximately 20%
SMILES: COC(=O)c1ccc2c(c1)NC(=O)/C2=C(\Nc1ccc(N(C)C(=O)CN2CCN(C)CC2)cc1)c1ccccc1 [Nintedanib, 1H-Indole-6-carboxylic acid, 2,3 dihydro-3-[[[4-[methyl[(4-methyl-1-piperazinyl)acetyl]amino]phenyl]amino]phenylmethylene]-2-oxo-,methyl ester]

absolute bioavailability (20 mg dose, fasted state): approximately 66%
decrease in AUC compared to tablet [2]: 29%
decrease in Cmax compared to tablet [2]: 56%
solubility in organic solvents (descriptive) ([1]; organic solvents (e.g., acetone, polyethylene glycol 400)): only slightly soluble
solubility in water / aqueous media (descriptive) [1]: practically insoluble
SMILES: O=C(NC[C@H]1CN(c2ccc(N3CCOCC3=O)cc2)C(=O)O1)c1ccc(Cl)s1 [Rivaroxaban, 5-Chloro-N-({(5S)-2-oxo-3-[4-(3-oxo-4-morpholinyl)phenyl]-1,3-oxazolidin-5-yl}methyl)-2-thiophenecarboxamide]

solubility in PEG 400 (descriptive) ([1]; PEG 400): soluble
solubility in ethanol (descriptive) ([1]; ethanol): slightly soluble
solubility in water / aqueous media (descriptive) [1]: practically insoluble
SMILES: CNC(=O)c1cc(Oc2ccc(NC(=O)Nc3ccc(Cl)c(C(F)(F)F)c3)cc2)ccn1 [Sorafenib, 4-[4-({[4-chloro-3-(trifluoromethyl)phenyl]carbamoyl}amino)phenoxy]-N-methylpyridine-2-carboxamide]
